In brackets after ≈: the same amount, converted by molar mass. Several values for one entry are separate records, joined by “and”; a condition that tells them apart may be missing. Identical values can stand only once.
Tests used:
[1] = tested on: Staphylococcus aureus ATCC 6738P; assay: agar-plate disc-diffusion test; format: cell-based; details: suspended in water at 1 mg/ml; 7 mm disc; 24-48 hours at 25-37° C.
[2] = tested on: Micrococcus luteus ATCC 9341; assay: agar-plate disc-diffusion test; format: cell-based; details: suspended in water at 1 mg/ml; 7 mm disc; 24-48 hours at 25-37° C.
[3] = tested on: Staphylococcus epidermidis EPI1; format: cell-based; details: agar dilution; 2, 5, 17, 22 median of three tests; paired values two experiments
[4] = tested on: Staphylococcus epidermidis EPI2; format: cell-based; details: agar dilution; 2, 5, 17, 22 median of three tests; paired values two experiments
[5] = tested on: Streptococcus pyogenes C203; format: cell-based; details: agar dilution; 2, 5, 17, 22 median of three tests; paired values two experiments
[6] = tested on: Streptococcus pneumoniae Park I; format: cell-based; details: agar dilution; 2, 5, 17, 22 median of three tests; paired values two experiments
[7] = tested on: Streptococcus pneumoniae Group D X66; format: cell-based; details: agar dilution; 2, 5, 17, 22 median of three tests; paired values two experiments
Streptococcus Group 9960 = format: cell-based, Streptococcus pneumoniae; details: agar dilution; 2, 5, 17, 22 median of three tests; paired values two experiments
Staphylococcus aureus = assay: in vivo activity against experimental bacterial infection (ED50); details: mice; two doses subcutaneously; dose protecting fifty percent of test animals
Streptococcus pyogenes = assay: as above; details: mice, dose protecting fifty percent of test animals; for ED50 Streptococcus pyogenes Oral: two doses orally; for ED50 Streptococcus pyogenes Subcutaneous: two doses subcutaneously
toxicity test (LD50) = details: mouse, in vivo, iv, mice; administered intravenously
[8] = tested on: Bacillus subtilis ATCC 6633; assay: agar-plate disc-diffusion test; details: 7 mm disc, 24-48 hours at 25-37° C.; for Size of Zone of Inhibition (mm) B. subtilis ATCC 6633, grown on minimal nutrient agar: 1 mg/ml; for Size of Zone of Inhibition (mm) Bacillus subtilis ATCC 6633: suspended in water at 1 mg/ml
Procedure: ^a Compounds were suspended in water at a concentration of 1 mg/ml; a
7 mm disc was dipped into the suspension and then placed on the agar
surface; incubation: 24-48 hours at 25-37° C.
^b Grown on minimal nutrient agar

[9] = tested on: Staphylococcus aureus X1.1; format: cell-based; details: agar dilution; 2, 5, 17, 22 median of three tests; paired values two experiments
[10] = tested on: Staphylococcus aureus V41; format: cell-based; details: penicillin-resistant strain; agar dilution; 2, 5, 17, 22 median of three tests; paired values two experiments
[11] = tested on: Staphylococcus aureus X400; format: cell-based; details: methicillin-resistant strain; agar dilution; 2, 5, 17, 22 median of three tests; paired values two experiments

| Compound | Size of Zone of Inhibition (mm) Staphylococcus aureus ATCC 6738P [1] [mm] | Size of Zone of Inhibition (mm) Micrococcus luteus ATCC 9341 [2] [mm] | MIC Staphylococcus epidermidis EPI1 [3] [µg/mL] | MIC Staphylococcus epidermidis EPI2 [4] [µg/mL] | MIC Streptococcus pyogenes C203 [5] | MIC Streptococcus pneumoniae Park I [6] [µg/mL] | MIC Streptococcus pneumoniae Group D X66 [7] [µg/mL] | MIC Streptococcus pneumoniae Group 9960 (Streptococcus Group 9960) [µg/mL] | ED50 Staphylococcus aureus Subcutaneous (Staphylococcus aureus) [mg/kg × 2] | ED50 Streptococcus pyogenes Oral (Streptococcus pyogenes) | ED50 Streptococcus pyogenes Subcutaneous (Streptococcus pyogenes) [mg/kg × 2] | LD50 (toxicity test (LD50)) [mg/kg] | Size of Zone of Inhibition (mm) B. subtilis ATCC 6633, grown on minimal nutrient agar [8] [mm] | Size of Zone of Inhibition (mm) Bacillus subtilis ATCC 6633 [8] | MIC Staphylococcus aureus X1.1 [9] [µg/mL] | MIC Staphylococcus aureus V41 [10] [µg/mL] | MIC Staphylococcus aureus X400 [11] [µg/mL] |
| --- | --- | --- | --- | --- | --- | --- | --- | --- | --- | --- | --- | --- | --- | --- | --- | --- | --- |
| CCCCCCCCCCCC(=O)N[C@@H](Cc1c[nH]c2ccccc12)C(=O)N[C@@H](CC(N)=O)C(=O)N[C@@H](CC(=O)O)C(=O)N[C@@H]1C(=O)NCC(=O)N[C@@H](CCCN)C(=O)N[C@@H](CC(=O)O)C(=O)N[C@H](C)C(=O)N[C@@H](CC(=O)O)C(=O)NCC(=O)N[C@H](CO)C(=O)N[C@@H]([C@H](C)CC(=O)O)C(=O)N[C@@H](CC(=O)c2ccccc2N)C(=O)O[C@@H]1C [Compound 6] | 25 | 19 | 1 (≈ 0.607 µM) | 1 (≈ 0.607 µM) | 0.125 µg/mL and 0.25 µg/mL | 0.25 (≈ 0.152 µM) | 2 (≈ 1.21 µM) | 0.5 (≈ 0.303 µM) | 0.44 | 69 mg/kg × 2 | 0.05 | 144 | 32 | 20 mm | – | – | – |
| CCCCCCCC(=O)N[C@@H](Cc1c[nH]c2ccccc12)C(=O)N[C@@H](CC(N)=O)C(=O)N[C@@H](CC(=O)O)C(=O)N[C@@H]1C(=O)NCC(=O)N[C@@H](CCCN)C(=O)N[C@@H](CC(=O)O)C(=O)N[C@H](C)C(=O)N[C@@H](CC(=O)O)C(=O)NCC(=O)N[C@H](CO)C(=O)N[C@@H]([C@H](C)CC(=O)O)C(=O)N[C@@H](CC(=O)c2ccccc2N)C(=O)O[C@@H]1C [Compound 2] | 23 | 23 | 8 (≈ 5.02 µM) | 4 (≈ 2.51 µM) | 1 µg/mL (≈ 0.628 µM) | 8 (≈ 5.02 µM) | 64 (≈ 40.2 µM) | 16 (≈ 10 µM) | – | > 200 mg/kg × 2 | – | > 600 | 20 | 18 mm | 4 (≈ 2.51 µM) | 4 (≈ 2.51 µM) | 8 (≈ 5.02 µM) |
| CCC(C)CCCCCCC(=O)N[C@@H](Cc1c[nH]c2ccccc12)C(=O)N[C@@H](CC(N)=O)C(=O)N[C@@H](CC(=O)O)C(=O)N[C@@H]1C(=O)NCC(=O)N[C@@H](CCCNC(=O)CCC(=O)O)C(=O)N[C@@H](CC(=O)O)C(=O)N[C@H](C)C(=O)N[C@@H](CC(=O)O)C(=O)NCC(=O)N[C@H](CO)C(=O)N[C@@H]([C@H](C)CC(=O)O)C(=O)N[C@@H](CC(=O)c2ccccc2N)C(=O)O[C@@H]1C (some centres unmarked) [Compound 15] | 21 | 19 | – | – | – | – | – | – | 6.27 | > 200 mg/kg × 2 | 1.4 | 450 | 25 | 18 mm | – | – | – |
| CCCCCCCCCC(=O)N[C@@H](Cc1c[nH]c2ccccc12)C(=O)N[C@H](CC(N)=O)C(=O)N[C@@H](CC(=O)O)C(=O)N[C@@H]1C(=O)NCC(=O)N[C@@H](CCCN)C(=O)N[C@@H](CC(=O)O)C(=O)N[C@H](C)C(=O)N[C@@H](CC(=O)O)C(=O)NCC(=O)N[C@H](CO)C(=O)N[C@@H]([C@H](C)CC(=O)O)C(=O)N[C@@H](CC(=O)c2ccccc2N)C(=O)O[C@@H]1C [Compound 4] | – | – | – | – | – | – | – | – | – | – | – | > 300 | – | – | – | – | – |
| NTrp -(n-Decanoyl)-NKyn -(n-decanoyl)-A-21978C [Compound 21] | – | – | 2 | 2 | 0.125 µg/mL | 0.5 | > 128 | 128 | – | – | – | – | – | – | 1 | 4 | 32 |
| NTrp -(n-dodecyl)-NOrn -(n-dodecyl)-A-21978C nucleus [Compound 23] | – | – | 8 | 8 | 4 µg/mL | 8 | 32 | 8 | – | – | – | – | – | – | 8 | 8 | 16 |
| CCCCCCCCCCCCCC(=O)N[C@@H](Cc1c[nH]c2ccccc12)C(=O)N[C@@H](CC(N)=O)C(=O)N[C@@H](CC(=O)O)C(=O)N[C@@H]1C(=O)NCC(=O)N[C@@H](CCCN)C(=O)N[C@@H](CC(=O)O)C(=O)N[C@H](C)C(=O)N[C@@H](CC(=O)O)C(=O)NCC(=O)N[C@H](CO)C(=O)N[C@@H]([C@H](C)CC(=O)O)C(=O)N[C@@H](CC(=O)c2ccccc2N)C(=O)O[C@@H]1C [Compound 8] | 22 | 21 | 1 (≈ 0.596 µM) | 2 (≈ 1.19 µM) | – | – | – | – | – | < 50 mg/kg × 2 | – | 62.5 | 28 | 21 mm | – | – | 2 (≈ 1.19 µM) |
| CCC(C)CCCCCCC(=O)N[C@@H](Cc1c[nH]c2ccccc12)C(=O)N[C@@H](CC(N)=O)C(=O)N[C@@H](CC(=O)O)C(=O)N[C@@H]1C(=O)NCC(=O)N[C@@H](CCCNC(C)=O)C(=O)N[C@@H](CC(=O)O)C(=O)N[C@H](C)C(=O)N[C@@H](CC(=O)O)C(=O)NCC(=O)N[C@H](CO)C(=O)N[C@@H]([C@H](C)CC(=O)O)C(=O)N[C@@H](CC(=O)c2ccccc2N)C(=O)O[C@@H]1C (some centres unmarked) [Compound 14] | 21 | 20 | – | – | – | – | – | – | 1.3 | 163 mg/kg × 2 and > 200 mg/kg × 2 | – | > 600 | 25 | 18 mm | – | – | – |
| CCCCCCCC(=O)NCCC[C@@H]1NC(=O)CNC(=O)[C@@H](NC(=O)[C@H](CC(=O)O)NC(=O)[C@H](CC(N)=O)NC(=O)[C@H](Cc2c[nH]c3ccccc23)NC(=O)CCCCCCC)[C@@H](C)OC(=O)[C@H](CC(=O)c2ccccc2N)NC(=O)[C@H]([C@H](C)CC(=O)O)NC(=O)[C@@H](CO)NC(=O)CNC(=O)[C@H](CC(=O)O)NC(=O)[C@@H](C)NC(=O)[C@H](CC(=O)O)NC1=O [Compound 16] | 11 | 10 | 16 (≈ 9.31 µM) | 16 (≈ 9.31 µM) | 4 µg/mL (≈ 2.33 µM) | 4 (≈ 2.33 µM) | > 128 | 64 (≈ 37.2 µM) | – | – | – | > 600 | 17 | tr | 8 (≈ 4.65 µM) | 16 (≈ 9.31 µM) | 8 (≈ 4.65 µM) |
| CCCCCCCCCCCCN[C@@H](Cc1c[nH]c2ccccc12)C(=O)N[C@@H](CC(N)=O)C(=O)N[C@@H](CC(=O)O)C(=O)N[C@@H]1C(=O)NCC(=O)N[C@@H](CCCN)C(=O)N[C@@H](CC(=O)O)C(=O)N[C@H](C)C(=O)N[C@@H](CC(=O)O)C(=O)NCC(=O)N[C@H](CO)C(=O)N[C@@H]([C@H](C)CC(=O)O)C(=O)N[C@@H](CC(=O)c2ccccc2N)C(=O)O[C@@H]1C [Compound 22, NTrp -(n-dodecyl)-A-21978C nucleus] | – | – | 1 (≈ 0.612 µM) | 1 (≈ 0.612 µM) | 0.5 µg/mL (≈ 0.306 µM) | 1 (≈ 0.612 µM) | 4 (≈ 2.45 µM) | 1 (≈ 0.612 µM) | 1.25 | > 200 mg/kg × 2 | – | > 300 | – | – | 0.5 (≈ 0.306 µM) | 1 (≈ 0.612 µM) | 1 (≈ 0.612 µM) |

From patent US4537717A
